# Legend:
# [1] = system: ESO51 (Esophageal Adenocarcinoma); assay: Bliss excess, mean over the matrix (fraction); higher = more synergy
# Procedure, shortened: (§1)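 Cell lines grown in DMEM/F12 or RPMI with 10% FBS were plated in 1536-well plates and held 24 hours at 37°C, 5% CO2 before 72 hours of exposure to two-drug dose matrices, with DMSO typically at 0.2%. CellTiter-Glo 2.0 luminescence gave viability, which was converted to inhibition. Vehicle wells were set to 0 and blank wells to 1. Combination Emax is the second-highest inhibition in the matrix, and Bliss excess is the observed combination effect minus the expected EA + EB − EA·EB, where EA and EB are the single-agent effects.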
# [2] = system: H9 (T-Cell Non-Hodgkin's Lymphoma); assay: as above
# Procedure, shortened: as §1
# [3] = system: IM-95 (Gastric Carcinoma); assay: as above
# Procedure, shortened: as §1
# [4] = system: NCCIT (Other Solid Carcinomas); assay: as above
# Procedure, shortened: as §1
# [5] = system: KP-3 (Pancreatic Carcinoma); assay: as above
# Procedure, shortened: as §1
# [6] = system: SU-DHL-5 (B-Cell Non-Hodgkin's Lymphoma); assay: as above
# Procedure, shortened: as §1
# [7] = system: KY821 (Acute Myeloid Leukemia); assay: as above
# Procedure, shortened: as §1
# [8] = system: NCI-H526 (Small Cell Lung Carcinoma); assay: as above
# Procedure, shortened: as §1
# [9] = system: CHSA8926 (Chondrosarcoma); assay: as above
# Procedure, shortened: as §1
# [10] = system: T-T (Esophageal Squamous Cell Carcinoma); assay: as above
# Procedure, shortened: as §1
# [11] = system: MN-60 (B-Lymphoblastic Leukemia); assay: as above
# Procedure, shortened: as §1
# [12] = system: JHH-4 (Hepatocellular Carcinoma); assay: as above
# Procedure, shortened: as §1
# G-361 (Melanoma) = assay: as above
# Procedure, shortened: as §1
# [13] = system: SUP-B15 (B-Lymphoblastic Leukemia); assay: as above
# Procedure, shortened: as §1
# [14] = system: HCC1187 (Breast Carcinoma); assay: as above
# Procedure, shortened: as §1
# [15] = system: NCI-H3122 (Lung Adenocarcinoma); assay: as above
# Procedure, shortened: as §1
# [16] = system: PC-3 (Prostate Carcinoma); assay: as above
# Procedure, shortened: as §1
# NCI-H2731 (Mesothelioma) = assay: as above
# Procedure, shortened: as §1
# [17] = system: MOLM-13 (Acute Myeloid Leukemia); assay: as above
# Procedure, shortened: as §1
# [18] = system: 8505C (Thyroid Gland Carcinoma); assay: combination Emax (second highest fraction inhibited in the dose matrix, 72 h); higher = more inhibition; extreme values may be limits of the assay
# Procedure, shortened: as §1
# 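Throughout, for Bliss excess, mean over the matrix: after 72 h of two-drug dosing.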
Compound,Bliss excess [1],Bliss excess [2],Bliss excess [3],Bliss excess [4],Bliss excess [5],Bliss excess [6],Bliss excess [7],Bliss excess [8],Bliss excess [9],Bliss excess [10],Bliss excess [11],Bliss excess [12],Bliss excess (G-361 (Melanoma)),Bliss excess [13],Bliss excess [14],Bliss excess [15],Bliss excess [16],Bliss excess (NCI-H2731 (Mesothelioma)),Bliss excess [17],combination Emax [18]
"Cc1c2c(nn1C)CSCc1cc(n(C)n1)CSc1cc(c3ccccc3c1)OCCCc1c(C(=O)O)n(C)c3c-2c(Cl)ccc13 [AZD5991] + CC1(C)CCC(CN2CCN(c3ccc(C(=O)NS(=O)(=O)c4ccc(NCC5CCOCC5)c([N+](=O)[O-])c4)c(Oc4cnc5[nH]ccc5c4)c3)CC2)=C(c2ccc(Cl)cc2)C1 [Venetoclax] (first compound max 1 µM, 7x7, partner max 1 µM)",-0.0008,0.0048,0.0119,-0.032,-0.0533,-0.0379,0.0331,0.243,-0.031,-0.0051,-0.031,0.0098,0.008,0.0213,0.0026,-0.0378,-0.0312,-0.0519,0.125,0.135
"Cc1c2c(nn1C)CSCc1cc(n(C)n1)CSc1cc(c3ccccc3c1)OCCCc1c(C(=O)O)n(C)c3c-2c(Cl)ccc13 [AZD5991] + CCN(CCO)CCCOc1ccc2c(Nc3cc(CC(=O)Nc4cccc(F)c4)[nH]n3)ncnc2c1 [AZD2811] (first compound max 1 µM, 7x7, partner max 1 µM)",0.0031,-0.0072,0.0605,-0.0049,-0.0026,-0.06,0.0053,0.123,0.0305,0.0614,0.0086,0.0134,0.0481,0.0125,-0.0292,0.0531,-0.0328,-0.0023,0.024,0.866
"Cc1c2c(nn1C)CSCc1cc(n(C)n1)CSc1cc(c3ccccc3c1)OCCCc1c(C(=O)O)n(C)c3c-2c(Cl)ccc13 [AZD5991] + C[C@@H]1COCCN1C2=NC(=NC(=C2)C3(CC3)[S@](=N)(=O)C)C4=C5C=CNC5=NC=C4 [AZD6738] (first compound max 1 µM, 7x7, partner max 10 µM)",0.0124,0.0395,-0.0412,0.0573,0.0405,-0.0059,-0.0356,0.0188,-0.0081,0.0461,-0.0081,0.0496,0.0356,0.0181,0.0756,0.056,0.035,-0.0074,0.0037,0.34
"Cc1c2c(nn1C)CSCc1cc(n(C)n1)CSc1cc(c3ccccc3c1)OCCCc1c(C(=O)O)n(C)c3c-2c(Cl)ccc13 [AZD5991] + C[C@@H](Nc1cc(F)cc(F)c1)c1cc(C(=O)N(C)C)cc2c(=O)cc(N3CCOCC3)oc12 [AZD8186] (first compound max 1 µM, 7x7, partner max 3 µM)",-0.0134,-0.0485,-0.0348,-0.0176,-0.0351,0.0109,0.0034,0.0192,0.091,0.0265,-0.0454,-0.0164,-0.0082,-0.0091,-0.0176,-0.0639,0.0051,-0.0626,-0.0351,0.2
"Cc1c2c(nn1C)CSCc1cc(n(C)n1)CSc1cc(c3ccccc3c1)OCCCc1c(C(=O)O)n(C)c3c-2c(Cl)ccc13 [AZD5991] + Cn1cnc2c(F)c(Nc3ccc(Br)cc3Cl)c(C(=O)NOCCO)cc21 [Selumetinib] (first compound max 1 µM, 7x7, partner max 3 µM)",0.0896,0.0145,0.0906,0.0003,-0.0378,0.0221,0.0044,0.0123,-0.0772,0.0289,-0.0125,0.0244,0.0083,0.0806,-0.0139,-0.0255,-0.0029,-0.0354,0.0409,0.42
"C[C@@H]1COCCN1c1cc(C2([S@](C)(=N)=O)CC2)nc(-c2ccnc3[nH]ccc23)n1 [AZD6738] + O=C(c1cc(Cc2n[nH]c(=O)c3ccccc23)ccc1F)N1CCN(C(=O)C2CC2)CC1 [Olaparib] (first compound max 10 µM, 7x7, partner max 10 µM)",-0.102,0.0058,0.031,0.0227,0.0143,0.002,-0.0521,-0.0072,0.01,-0.0237,-0.042,-0.0325,-0.0052,-0.0608,0.0586,0.0446,-0.0095,-0.0266,-0.0526,0.356
"Cc1cc2ncnn2cc1Nc1ncc2c(n1)n(C1CCOCC1)c(=O)n2C [AZD7648] + C=CCn1c(=O)c2cnc(Nc3ccc(N4CCN(C)CC4)cc3)nc2n1-c1cccc(C(C)(C)O)n1 [AZD1775] (first compound max 10 µM, partner max 1 µM)",-0.0433,0.0346,0.0212,0.0237,0.0283,0.105,-0.0098,0.013,0.0382,0.002,-0.0316,0.04,0.0081,0.0174,0.0302,-0.0402,-0.0415,-0.0225,-0.0255,0.175

# From the supplement of paper PMC11061612
